Test [1] relates to atherosclerotic lesion. Nature of the test: Anti-atherosclerotic activity test in WHHL rabbit: cholesterol ester content of thoracic aorta. The format is in vivo. Here is the method: (§1) Using 7-month-old WHHL rabbits, the compound X (3, 10 mg/kg/day) was orally administered once a day for 12 weeks and influence on atherosclerosis was examined. Before drug administration, aortic atherosclerosis was tested by intravascular ultrasound (IVUS), and WHHL rabbits were grouped based on the aortic atherosclerosis, plasma cholesterol level and sex.
(§2) Before initiation of administration, and 1, 2, 4, 6, 8, 10, 12 weeks from administration, blood samples were collected, a plasma total cholesterol level of each sample was measured using a biochemical automatic analysis apparatus and a plasma total cholesterol exposure amount during the administration period was obtained by a trapezoid formula. After administration, the thoracic aorta was removed, and a cholesterol ester content as an index of atherosclerosis was measured.

Test [2] can be described thus: Anti-atherosclerotic activity test in WHHL rabbit: plasma total cholesterol exposure amount. The format is in vivo. The conditions noted are these: for Plasma total cholesterol exposure amount during administration period: average ± standard error, control 6194 ± 511, no significant difference (Williams' test). Here is the method:
as §1, §2

Test [3] concerns the target T1, ACAT (Oryctolagus cuniculus, UniProt A0A5F9CPP4).
T1 construct: to obtain a homogenate, which was used as an “atherosclerotic lesion sample” for a biochemical measurement; from tissue; host or cells: aortic atherosclerotic lesion tissue homogenate of WHHL rabbits dosed orally for 3 days
T1 sequence (A0A5F9CPP4 1-555): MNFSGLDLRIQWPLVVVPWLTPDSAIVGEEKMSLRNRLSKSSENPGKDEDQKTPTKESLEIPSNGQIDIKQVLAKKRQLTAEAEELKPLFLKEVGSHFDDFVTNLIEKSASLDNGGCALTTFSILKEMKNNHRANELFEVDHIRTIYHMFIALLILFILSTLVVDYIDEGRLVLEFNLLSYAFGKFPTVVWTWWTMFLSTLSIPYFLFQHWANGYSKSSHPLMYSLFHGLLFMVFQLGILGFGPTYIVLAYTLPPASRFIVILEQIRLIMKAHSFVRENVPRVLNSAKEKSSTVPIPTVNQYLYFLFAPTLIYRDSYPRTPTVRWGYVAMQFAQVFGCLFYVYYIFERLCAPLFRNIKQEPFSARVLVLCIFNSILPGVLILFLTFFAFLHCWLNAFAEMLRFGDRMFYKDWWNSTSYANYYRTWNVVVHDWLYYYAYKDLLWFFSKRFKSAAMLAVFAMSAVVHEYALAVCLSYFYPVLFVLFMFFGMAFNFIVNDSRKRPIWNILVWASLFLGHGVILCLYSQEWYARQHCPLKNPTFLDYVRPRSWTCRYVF
Nature of the test: Atherosclerotic lesion ACAT enzyme inhibition test (3-day oral administration, lesion homogenate, correction markers). The format is in vivo, WHHL rabbit. The text has this: Using a rabbit having an atherosclerotic lesion in the aorta due to rearing with a high cholesterol diet, or due to hereditary hyperlipemia, etc., an ACAT inhibitor or a medium was orally administered once a day for 3 days. About two hours after final administration, the rabbit was anesthetized and killed by exsanguination, and the aorta was removed, frozen and stored. After thawing the frozen-stored aorta, a tissue section of an atherosclerotic lesion residing site was corrected using a biopsy trephine. […]
An ACAT reaction was measured by mixing a reaction buffer (0.19 M Tris-HCl pH 7.5, 3 mM EDTA, cholesterol 0.2 mg/ml, BSA 3 mg/ml), the aforementioned “atherosclerotic lesion sample”, and a substrate solution ([3H]Oleoyl-CoA), reacting the mixture with stirring at 37° C. for 30 minutes, fractionating a lipid fraction by thin layer chromatography, and measuring radioactivity (DPM) incorporated into a cholesteryl ester fraction with a liquid scintillation counter. Radioactivity of a blank sample (STE buffer instead of the homogenate was added) was also measured, and a value obtained by subtracting radioactivity of the blank from radioactivity of each sample was adopted as the ACAT enzyme activity. […]

For test [4] the following is noted: clinical test; cited from earlier work.
Test [5] concerns atherosclerotic lesion. Conditions: pre-clinical tests; accompanied with reduction in plasma cholesterol level; cited from earlier work.

As to “Monopotassium bis((2E)-3-{3-[7-chloro-3-(2-{[4-fluoro-2-(trifluoromethyl)phenyl]amino}-2-oxoethyl)-6-methyl-2-oxo-2H-chromen-4-yl]phenyl}acrylate) trihydrate [compound X]”, the “anti-atherosclerotic activity by long-term treatment” value in test [1] (3 and 10 mg/kg, long-term treatment) is reported as “clear anti-atherosclerotic activity”. The “cholesterol ester content of the thoracic aorta” value in test [1] (3 and 10 mg/kg/day orally for 12 weeks (FIG. 10)) was “significantly reduced”. For the same molecule, the “Plasma total cholesterol exposure amount during administration period” value in test [2] (3 mg/kg/day orally for 12 weeks) stood at 5356 ± 410 mg · week/dL; in test [2] (10 mg/kg/day orally for 12 weeks), 4957 ± 490 mg · week/dL. The “effect on plasma total cholesterol exposure amount during the administration period (in words)” value in test [2] (3 and 10 mg/kg/day orally for 12 weeks) is on record as “only a reduction tendency”. Besides, in test [3] (3 mg/kg orally once a day for 3 days, vs control group), the “inhibition of ACAT enzyme activity, LAL correction” value was “significant inhibition”. In addition, the “inhibition of atherosclerotic lesion ACAT activity utilizing the correction marker” value in test [3] (3 and 10 mg/kg, administration for 3 days) is listed as “inhibited the atherosclerotic lesion ACAT activity of the WHHL rabbit dose-dependently”.
As for `CC(C)c1cc(C(C)C)c(CC(=O)NS(=O)(=O)Oc2c(C(C)C)cccc2C(C)C)c(C(C)C)c1` [Avasimibe], in test [4], the anti-atherosclerotic activity entry is given as “no effect was observed” and the “effect on blood lipid level” value is recorded as “certain effect”. The “anti-atherosclerotic activity: cholesterol ester in an atherosclerotic lesion” value in test [5] is “lowering a cholesterol ester in an atherosclerotic lesion”.
